In patent US9073835B2, “N-acylthiourea and N-acylurea inhibitors of the Hedgehog protein signalling pathway” (Centre National De La Recherche Scientifique, priority 2008, dated 2015):

Tested on: Hedgehog protein signaling pathway
Assay: Inhibition of SAG-induced alkaline phosphatase activity (differentiation) in C3H10T1/2 cells
Type: cell-based
Conditions: Mus musculus; for inhibition at 10 µM: C3H 10T1/2, 10 μM test compound, percentage of alkaline phosphatase activity induced by SAG; for IC50: C3H 10T1/2, after induction by 0.1 μM SAG
Experimental: The effect of compounds with formula (I) as claimed in the invention on inhibition of the Hedgehog protein signaling pathway was determined by analysis of differentiation in the pluripotent fibroblast cell line C3H10T1/2 after activation of this pathway in these cells using a synthetic activator: SAG.
The compounds with formula (I) to be tested were dissolved in dimethylsulfoxide to a concentration of 10 mM, then stored at a temperature of −20° C. until use.
The pluripotent fibroblast cell line C3H10T1/2 (ATCC) was cultivated under the conditions recommended by the ATCC. These cells were activated using 0.1 μM of SAG, employing the methods described by Chen et al., Proc. Natl. Acad. Sci. USA, 2002, 99, 14071 and Frank-Kamenetsky et al., J. Biol., 2002, 1, 10.
Activation with SAG provokes differentiation of the cell line and allows them to express alkaline phosphatase. It is then possible to measure the activity of the Hedgehog protein signaling pathway by measuring the alkaline phosphatase activity.
The C3H10T1/2 cells were plated onto 96-well plates at a density of […], 24 hours before addition of the test compounds in a concentration of 1 nM to 30 μM and in the presence of 0.1 μM of SAG using DMEM supplemented with 10% fetal calf serum as the culture medium. The tests were carried out in quadruplicate. The plates were then incubated for 5-6 days at a temperature of 37° C. in an atmosphere of 5% CO2. The cells were washed in a cold phosphate buffer (“Phosphate Buffer Serum”: PBS) then lysed by sonication at 4° C. in 50 μl of a solution containing 0.9% of NaCl and 0.2% of Triton X-100.
By way of comparison, the activity of a known inhibitor of the Hedgehog protein signaling pathway, CURIS 61 414, as described, for example, by Frank-Kamenetsky M. et al. (J. Biol., 2002, 1, 10), was tested under the same conditions as those used to test the various compounds with formula (I) as claimed in the invention.
The alkaline phosphatase activity measurement in the lysates obtained was then carried out using the method described by Pepinsky et al. (J. Biol. Chem., 1998, 273, 14037). After adding 100 μl of reaction buffer (200 mM Tris-HCl; pH 10.5; 0.4 M of 2-amino-2-methylpropanol and 8 mM of MgCl2) and 50 μl of substrate (4 mM of disodium p-nitrophenyl phosphate), the lysates were incubated at 37° C. for 30-60 min, then the optical density was read at a wavelength of 415 nm.

| IC50 | Structure (SMILES) | inhibition at 10 µM |
| --- | --- | --- |
| 1 to 3 µM | COc1cc(C(=O)NC(=S)Nc2cccc(NC(=O)c3ccccc3Cl)c2)cc(OC)c1OC [Compound 2, N-[[[3-(2-chloro-benzoylamino)phenyl]amino]thioxomethyl]-3,4,5-methoxy-benzamide] | > 80% |
| 1 to 3 µM | COc1cccc(C(=O)Nc2cccc(NC(=S)NC(=O)c3cc(OC)c(OC)c(OC)c3)c2)c1 [Compound 3, N-[[[3-(3-methoxy-benzoylamino)phenyl]amino]thioxomethyl]-3,4,5-methoxy-benzamide] | > 80% |
| 1 to 3 µM | COc1ccccc1C(=O)Nc1cccc(NC(=S)NC(=O)c2cc(OC)c(OC)c(OC)c2)c1 [Compound 4, N-[[[3-(2-methoxy-benzoylamino)phenyl]amino]thioxomethyl]-3,4,5-methoxy-benzamide] | > 80% |
| 0.01 to 1 µM | COc1cc(C(=O)NC(=S)Nc2cccc(NC(=O)c3ccc(-c4ccccc4)cc3)c2)cc(OC)c1OC [Compound 5, N-[[[3-(4-phenyl-benzoylamino)phenyl]amino]thioxomethyl]-3,4,5-methoxy-benzamide] | 20 to 80% |
|  | COc1cc(C(=O)NC(=O)Nc2cccc(NC(=O)c3ccc(-c4ccccc4)cc3)c2)cc(OC)c1OC [Compound 7, N-[[[3-(4-phenyl-benzoylamino)phenyl]amino]oxomethyl]-3,4,5-methoxy-benzamide] | 20 to 80% |
|  | COc1cc(C(=O)NC(=S)Nc2cccc(NC(=O)C3CCCCC3)c2)cc(OC)c1OC [Compound 8, N-[[[3-(-cyclohexylcarboxylamino)phenyl]amino]thioxomethyl]-3,4,5-methoxy-benzamide] | 20 to 80% |
|  | COc1cc(C(=O)NC(=S)Nc2cccc(NC(=O)c3ccc4ccccc4c3)c2)cc(OC)c1OC [Compound 9, N-[[[3-(2-naphthoylamino)phenyl]amino]thioxomethyl]-3,4,5-methoxy-benzamide] | 20 to 80% |
|  | COc1cc(C(=O)NC(=S)Nc2cccc(NC(=O)C(C)C)c2)cc(OC)c1OC [Compound 10, N-[[[3-(isopropoylcarboxylamino)phenyl]amino]thioxomethyl]-3,4,5-methoxy-benzamide] | 5 to 20% |
|  | COc1cc(C(=O)NC(=S)Nc2cccc(NC(=O)c3ccncc3)c2)cc(OC)c1OC [Compound 11, N-[[[3-(4-pyridocarboxylamino)phenyl]amino]thioxomethyl]-3,4,5-methoxy-benzamide] | > 80% |
|  | COc1cc(C(=O)NC(=S)Nc2cccc(NC(=O)c3cccc4ccccc34)c2)cc(OC)c1OC [Compound 12, N-[[[3-(1-naphthoylamino)phenyl]amino]thioxomethyl]-3,4,5-methoxy-benzamide] | 20 to 80% |
| 0.01 to 1 µM | COc1cc(C(=O)NC(=S)Nc2cccc(NC(=O)c3ccc(Cl)cc3)c2)cc(OC)c1OC [Compound 13, N-[[[3-(4-chloro-benzoylamino)phenyl]amino]thioxomethyl]-3,4,5-methoxy-benzamide] | > 80% |
|  | COc1cc(C(=O)NC(=S)Nc2cccc(NC(=O)c3ccco3)c2)cc(OC)c1OC [Compound 14, N-[[[3-(2-furoylamino)phenyl]amino]thioxomethyl]-3,4,5-methoxy-benzamide] | 20 to 80% |
|  | COc1cc(C(=O)NC(=S)Nc2cccc(NC(=O)c3cccs3)c2)cc(OC)c1OC [Compound 15, N-[[[3-(2-thiophenoylamino)phenyl]amino]thioxomethyl]-3,4,5-methoxy-benzamide] | 20 to 80% |
|  | COc1cc(C(=O)NC(=O)Nc2cccc(NC(=O)c3ccc4ccccc4c3)c2)cc(OC)c1OC [Compound 16, N-[[[3-(2-naphthoylamino)phenyl]amino]oxomethyl]-3,4,5-methoxy-benzamide] | 5 to 20% |
|  | COc1cc(C(=O)NC(=O)Nc2cccc(NC(=O)C(C)C)c2)cc(OC)c1OC [Compound 17] | > 80% |
| 1 to 3 µM | COc1cc(OC)cc(C(=O)NC(=S)Nc2cccc(NC(=O)c3ccccc3)c2)c1 [Compound 18, N-[[[3-(benzoylamino)phenyl]amino]thioxomethyl]-3,5-methoxy-benzamide] | > 80% |

| IC50 | Structure (SMILES) | inhibition at 10 µM |
| --- | --- | --- |
| 0.01 to 1 µM | CCOc1c(OC)cc(C(=O)NC(=S)Nc2cccc(NC(=O)c3ccccc3)c2)cc1OC [Compound 19, N-[[[3-(benzoylamino)phenyl]amino]thioxomethyl]-3,5-methoxy-4-ethoxy-benzamide] | > 80% |
| 0.01 to 1 µM | CCOc1cc(C(=O)NC(=S)Nc2cccc(NC(=O)c3ccccc3)c2)cc(OC)c1OCC [Compound 20, N-[[[3-(benzoylamino)phenyl]amino]thioxomethyl]-3,4-ethoxy-5-methoxy-benzamide] | > 80% |
| 1 to 3 µM | COc1cc(C(=O)NC(=S)Nc2cccc(NC(=O)c3ccccc3)c2)cc2c1OCO2 [Compound 21, N-[[[3-(benzoylamino)phenyl]amino]thioxomethyl]-3,4-methylenedioxy-5-methoxy-benzamide] | > 80% |
| 1 to 3 µM | COc1ccc(C(=O)NC(=S)Nc2cccc(NC(=O)c3ccccc3)c2)c(OC)c1 [Compound 22, N-[[[3-(benzoylamino)phenyl]amino]thioxomethyl]-2,4-methoxy-benzamide] | 20 to 80% |
| 0.01 to 1 µM | CCOc1cc(C(=O)NC(=S)Nc2cccc(NC(=O)c3ccccc3)c2)cc(OCC)c1OCC [Compound 23, N-[[[3-(benzoylamino)phenyl]amino]thioxomethyl]-3,4,5-ethoxy-benzamide] | > 80% |
|  | COc1cc(C(=O)NC(=S)Nc2ccc(F)c(NC(=O)c3ccccc3)c2)cc(OC)c1OC [Compound 24, N-[[[4-fluoro-3-(benzoylamino)phenyl]amino]thioxomethyl]-3,4,5-methoxy-benzamide] | > 80% |
|  | COc1cc(C(=O)NC(=S)Nc2ccc(Cl)c(C(=O)Nc3ccccc3)c2)cc(OC)c1OC [Compound 25, N-[[[4-chloro-3-(phenylamino)carbonyl]amino]thioxomethyl]-3,4,5-methoxy-benzamide] | > 80% |
|  | COc1ccc(NC(=S)NC(=O)c2cc(OC)c(OC)c(OC)c2)cc1NC(=O)c1ccccc1 [Compound 26, N-[[[4-methoxy-3-(benzoylamino)phenyl]amino]thioxomethyl]-3,4,5-methoxy-benzamide] | 20 to 80% |
|  | COc1cc(C(=O)NC(=S)Nc2ccc(C)c(NC(=O)c3ccccc3)c2)cc(OC)c1OC [Compound 27, N-[[[4-methyl-3-(benzoylamino)phenyl]amino]thioxomethyl]-3,4,5-Methoxy-benzamide] | 20 to 80% |
|  | O=C(NC(=S)Nc1cccc(NC(=O)c2ccccc2)c1)c1ccc2c(c1)OCCO2 [Compound 28, N-[[[3-(benzoylamino)phenyl]amino]thioxomethyl]-3,4-ethylenedioxo-benzamide] | 5 to 20% |
|  | CCOc1cc(C(=O)NC(=O)Nc2cccc(NC(=O)c3ccccc3)c2)cc(OCC)c1OCC [Compound 29, N-[[[3-(benzoylamino)phenyl]amino]oxomethyl]-3,4,5-ethoxy-benzamide] | 20 to 80% |
|  | COc1cc(C(=O)NC(=O)Nc2cccc(NC(=O)c3ccccc3)c2)cc2c1OCO2 [Compound 30, N-[[[3-(benzoylamino)phenyl]amino]oxomethyl]-3,4-methylenedioxy-5-methoxy-benzamide] | 5 to 20% |
|  | COc1cc(C(=O)NC(=O)Nc2ccc(Cl)c(NC(=O)c3ccccc3)c2)cc(OC)c1OC [Compound 33, N-[[[4-chloro-3-(benzoylamino)phenyl]amino]oxomethyl]-3,4,5-methoxy-benzamide] | 20 to 80% |
| 0.01 to 1 µM | COc1cc(C(=O)NC(=S)Nc2ccc(Cl)c(NC(=O)c3ccccc3)c2)cc(OC)c1OC [Compound 34, N-[[[4-chloro-3-(benzoylamino)phenyl]amino]thioxomethyl]-3,4,5-methoxy-benzamide] | > 80% |
|  | COc1cc(C(=O)NC(=S)Nc2cc(Cl)cc(NC(=O)c3ccccc3)c2)cc(OC)c1OC [Compound 35, N-[[[5-chloro-3-(benzoylamino)phenyl]amino]thioxomethyl]-3,4,5-methoxy-benzamide] | 20 to 80% |
|  | COc1cc(C(=O)NC(=O)Nc2ccc(Cl)c(NC(=O)c3ccc(-c4ccccc4)cc3)c2)cc(OC)c1OC [Compound 37, N-[[[4-Chloro-3-(4-phenyl-benzoylamino)phenyl]amino]oxomethyl]-3,4,5-methoxy-benzamide] | 20 to 80% |
